# Values joined by “and” are separate entries in the source; they are usually repeats but may differ in a detail not shown here. Identical values can stand only once. Like-named read-outs stand apart in the source and are kept apart here.
# How the values were obtained:
# [1] = target: wild-type his-tagged mouse Pgp transporter reconstituted into liposomes (Mus musculus, UniProt P21447); assay: Pgp-coupled ATPase activity
# [2] = target: T1, mouse Pgp reconstituted in liposomes (Mus musculus, UniProt P21447); details: 3.2 mM (saturating) AMPPNP, no verapamil
# [3] = target: T1, mouse Pgp reconstituted in liposomes; assay: AMPPNP-induced quenching of Pgp intrinsic tryptophan fluorescence
# [4] = target: mouse Pgp reconstituted into liposomes (Mus musculus, UniProt P21447)
# [5] = 3.2 mM AMPPNP, 1 µM Pgp, no verapamil
structure (smiles),measurement,setting,value
"Nc1ncnc2c1ncn2[C@@H]1O[C@H](COP(=O)(O)OP(=O)([O-])OP(=O)([O-])O)[C@@H](O)[C@H]1O.[Na+].[Na+] [ATP, Disodium ATP]",VMAX basal Pgp ATPase activity,"[1]; ATP titration in the absence of verapamil, Equation 1",619 ± 18 nmol/min/mg
same,increase of ATP affinity in the presence of two bound verapamil molecules,"[1]; COPASI fit, KD5 versus KD3, saturating verapamil",~ 4 fold and 4 fold
same,"Vmax0 (basal ATPase activity, E-ATP)","[1]; COPASI fit, average over […]-3.2 mM ATP",672 ± 93 nmol/min/mg
same,VMAX of Pgp-coupled ATPase with ATP alone (discussion),[1]; no verapamil,500 to 700 nmol/min/mg
same,Kd,"[1]; read-out: KD4 (ATP to EV, one bound verapamil), COPASI fit, 0.5 mM ATP data set",1490 µM
same,Kd,"[1]; read-out: KD4 (ATP to EV, one bound verapamil), COPASI fit, 1 mM ATP data set",1340 µM
same,Kd,"[1]; read-out: KD4 (ATP to EV, one bound verapamil), COPASI fit, 2 mM ATP data set",1030 µM
same,Kd,"[1]; read-out: KD4 (ATP to EV, one bound verapamil), COPASI fit, 3.2 mM ATP data set",1000 µM
same,Kd,"[1]; read-out: KD4 (ATP to EV, one bound verapamil), COPASI fit, […] ATP data set",1350 µM
same,Kd,"[1]; read-out: KD5 (ATP to EVV, two bound verapamil), COPASI fit, 3.2 mM ATP data set",210 µM
same,Km,"[1]; read-out: Km for ATP in the presence of Na3VO4, 200 µM Na3VO4, range of ATP concentrations, Equation 1",906 ± 476 µM
"[Na+].[Na+].[Na+].[O]=[V]([O-])([O-])[O-] [Na3VO4, sodium orthovanadate]",mode of inhibition of Pgp-mediated ATP hydrolysis,[1]; 200 µM,non-competitive inhibitor
same,VMAX Pgp ATPase activity in the presence of Na3VO4,"[1]; 200 µM Na3VO4, range of ATP concentrations, Equation 1",172 ± 24 nmol/min/mg
same,Na3VO4 sensitive VMAX for Pgp,[1]; difference in VMAX without and with 200 µM Na3VO4,447 ± 30 nmol/min/mg
"Nc1ncnc2c1ncn2[C@@H]1O[C@H](COP(=O)([O-])OP(=O)([O-])NP(=O)([O-])[O-])[C@@H](O)[C@H]1O.[Li+].[Li+].[Li+].[Li+] [AMPPNP, Adenosine 5’-(β,γ-imido)triphosphate lithium salt]",KSV acrylamide quenching,[2],0.97 ± 0.16 M⁻¹
same,K1 (low concentration phase),"[3]; 37 °C, data not shown",8 µM⁻¹
same,K2 (high concentration phase),"[3]; 37 °C, data not shown",0.017 µM⁻¹
same,"K1 (low concentration phase, dynamic quenching)",[3]; fit to equation 6,6.66 +/− 3.41 µM ^−1
same,"K2 (high concentration phase, static quenching)",[3]; fit to equation 6,0.022 +/− 0.006 µM ^−1
same,"fraction quenched, high concentration phase (FH/F0)",[3]; fit to equation 6,0.074
same,"fraction quenched, low concentration phase (FL/F0)",[3]; fit to equation 6,0.16
same,Kd,"[3]; read-out: KD of AMPPNP for Pgp, from high concentration (static) quenching phase",45 µM
same,decrease of Pgp tryptophan fluorescence,"[3]; saturating AMPPNP concentration, 1 µM Pgp",about 15%
same,decrease of average STDD amplification factor of AMPPNP,[4]; 3.2 mM AMPPNP and 8 µM verapamil,15%
same,increase of average STDD amplification factors of AMPPNP,[4]; 3.2 mM AMPPNP and 1 mM verapamil,more than 20%
same,average STDD amplification factor for AMPPNP,[4]; [5],63 ± 51
same,"average STDD amplification factor, purine base",[4]; [5],79 ± 64
same,"average STDD amplification factor, ribose sugar",[4]; [5],40 ± 11

# Source: publication PMC5341695 (Biochemical pharmacology, 2016)
